The subject of this experiment is TERT, TPP1, TERF1, TERF2, TINF2, POT1. In words: qPCR primer assays of telomere complex genes in skin fibroblasts AG07999. As to conditions: 24 hours; 1 uM idebenone, 0.001% coffee cherry; FIG. 7. It counts as cell-based, human. As for the experimental part:
Cell cultures: A human skin fibroblast cell culture was obtained through the Coriell Cell Repository from the National Institute on Aging Cell Repository. The culture, AG07999, was established from a biopsy of a person. Culture media: Cells were grown in Minimal Essential Medium supplemented with 10% fetal bovine serum, 2 mM L-glutamine, 2 mM Glutamax I. […] All cultures were incubated at 37° C. with 5% CO2 in a humidified chamber. Seeding of cells: […] Experimental phase: […] On Day 5 after 24 hours of exposure to test conditions, the cells were isolated and the RNA isolated using the RT^2q PCR-grade RNA isolation kit (Superarray Bioscience Corporation). […] The RNA was quantified and examined for purity using the 260/280 nm read method in a μQuant spectrophotometer before use in the array. Performance of the qPCR Primer Assays: […] The assay was performed in compliance with manufacturer's guidelines and by recommended manufacturer's protocol as can be found on the World Wide Web at superarray.com/Manual/realtimePCR.pdf. […] Any values out of range of the threshold cycles or inconsistent within the assay were discarded from analysis. qPCR Primer Assay results: The results from assays were determined using the delta CT method, which uses comparisons of control genes and threshold cycles of genes of interest to generate relative expression values (this process is handled by the GeneX package).
Background: Quantitative PCR measures a nucleic acid by following its amplification.

`COC1=C(OC)C(=O)C(CCCCCCCCCCO)=C(C)C1=O` [Idebenone, 6-(10-hydroxydecyl)-2,3-dimethoxy-5-methyl-1,4-benzoquin-one]: the TERF1 expression level entry is recorded as “effected” and the TERF2 expression level entry is recorded as “effected”.

For the origin of these results see US20140079836A1, “METHODS AND COMPOSITIONS FOR ALTERING HEALTH, WELLBEING, AND LIFESPAN” (LifeSpan Extension, LLC, priority 2008, published 2014).
